Tests used:
[1] = tested on: Strain IIIB, wild type HIV-LAI strain; assay: Antiviral activity, cellular assay, strain IIIB; type: cell-based
Method: (§1) Because of the increasing emergence of drug resistant HIV strains, the present compounds were tested for their potency against clinically isolated HIV strains harboring several mutations. These mutations are associated with resistance to reverse transcriptase inhibitors and result in viruses that show various degrees of phenotypic cross-resistance to the currently commercially available drugs such as for instance AZT and delavirdine.
(§2) The antiviral activity of the compound of the present invention has been evaluated in the presence of wild type HIV and HIV mutants bearing mutations at the reverse transcriptase gene. The activity of the compounds is evaluated using a cellular assay and the residual activity is expressed in pEC50 values. The columns IIIB and A-G in the table list the pEC50 values against various strains IIIB, A-G.
Strain IIIB is wild type HIV-LAI strain

[2] = tested on: Strain A, mutation Y181C in HIV reverse transcriptase; assay: Antiviral activity, cellular assay, strain A; type: cell-based; details: for pEC50 A: HIV strain with RT mutation Y181C, cellular assay
Method: as §1, §2
Strain A contains mutation Y181C in HIV reverse transcriptase, […]

[3] = tested on: Strain B, mutation K103N in HIV reverse transcriptase; assay: Antiviral activity, cellular assay, strain B; type: cell-based; details: for pEC50 B: HIV strain with RT mutation K103N, cellular assay
Method: as §1, §2
Strain B contains mutation K103N in HIV reverse transcriptase, […]

[4] = tested on: Strain C, mutation L100I in HIV reverse transcriptase; assay: Antiviral activity, cellular assay, strain C; type: cell-based; details: for pEC50 C: HIV strain with RT mutation L100I, cellular assay
Method: as §1, §2
Strain C contains mutation L100I in HIV reverse transcriptase, […]

[5] = tested on: Strain D, mutation Y188L in HIV reverse transcriptase; assay: Antiviral activity, cellular assay, strain D; type: cell-based; details: for pEC50 D: HIV strain with RT mutation Y188L, cellular assay
Method: as §1, §2
Strain D contains mutation Y188L in HIV reverse transcriptase, […]

[6] = tested on: Strain E, mutations L100I and K103N in HIV reverse transcriptase; assay: Antiviral activity, cellular assay, strain E; type: cell-based; details: for pEC50 E: HIV strain with RT mutations L100I and K103N, cellular assay
Method: as §1, §2
Strain E contains mutations L100I and K103N in HIV reverse transcriptase, […]

[7] = tested on: Strain F, mutations K103N and Y181C in HIV reverse transcriptase; assay: microbe, parasite or virus in culture; type: cell-based; details: for pEC50 F: HIV strain with RT mutations K103N and Y181C, cellular assay
[8] = Antiviral activity, cellular assay, strain G; type: cell-based, HIV; details: Human immunodeficiency virus 1, read-out: pEC50 G (converted)
Method: as §1, §2

[9] = tested on: Strain G, mutations L100I, K103N, Y181C, V179I, Y181C, E138G, V179I, L2214F, V278V/1 and A327A/V in HIV reverse transcriptase; assay: Antiviral activity, cellular assay, strain G; type: cell-based; details: HIV strain with RT mutations L100I, K103N, Y181C, V179I, E138G, L2214F, V278V/1 and A327A/V; cellular assay
Method: as §1, §2

Cc1cc(/C=C/C#N)cc(C)c1Nc1nc(Nc2ccc(C#N)cc2)ncc1Br
melting point: > 250 °C

Cc1cc(/C=C/C#N)cc(C)c1Nc1nc(Nc2ccc(C#N)cc2)ncc1C(=O)O
melting point: > 250 °C

Cc1cc(/C=C/C#N)cc(C)c1Nc1nc(Nc2ccc(C#N)cc2)ncc1C(N)=O
melting point: > 250 °C

CC(=O)Nc1cnc(Nc2ccc(C#N)cc2)nc1Nc1c(C)cc(/C=C/C#N)cc1C
melting point: > 250 °C

N#C/C=C/c1cc(F)c(Nc2nc(Nc3ccc(C#N)cc3)ncc2Br)c(Cl)c1
melting point: 236 °C

Cc1cc(/C=C/C#N)cc(C)c1Nc1nc(Nc2ccc(C#N)cc2)ncc1[N+](=O)[O-]
melting point: > 250 °C

Cc1cc(/C=C/C#N)cc(C)c1Nc1nc(Nc2ccc(C#N)cc2)ncc1N
melting point: > 250 °C

N#C/C=C/c1cc(F)c(Nc2nc(Nc3ccc(C#N)cc3)ncc2[N+](=O)[O-])c(Cl)c1
melting point: > 250 °C

N#C/C=C/c1cc(F)c(Nc2nc(Nc3ccc(C#N)cc3)ncc2N)c(Cl)c1
melting point: > 250 °C

Cc1cc(/C=C/C#N)cc(C)c1Nc1nc(Nc2ccc(C#N)cc2)ncc1NC=O [Compound 13]
EC50 ([1]; Human immunodeficiency virus 1, IIIB): 0.398 nM | EC50 ([2]; Human immunodeficiency virus 1, read-out: pEC50 A (converted)): 2.51 nM | EC50 ([3]; Human immunodeficiency virus 1, read-out: pEC50 B (converted)): 0.631 nM | EC50 ([4]; Human immunodeficiency virus 1, read-out: pEC50 C (converted)): 0.631 nM | EC50 ([5]; Human immunodeficiency virus 1, read-out: pEC50 D (converted)): 3.16 nM | EC50 ([6]; Human immunodeficiency virus 1, read-out: pEC50 E (converted)): 6.31 nM | EC50 ([7]; Human immunodeficiency virus 1, read-out: pEC50 F (converted)): 3.98 nM | EC50 [8]: 1000 nM

Cc1cc(CCC#N)cc(C)c1Nc1nc(Nc2ccc(C#N)cc2)ncc1C(N)=O [Compound 26]
pEC50 IIIB [1]: 9.7 | pEC50 A [2]: 9 | pEC50 B [3]: 9.7 | pEC50 C [4]: 10 | pEC50 D [5]: 8.6 | pEC50 E [6]: 9.2 | pEC50 F [7]: 9.2 | pEC50 G [9]: 6.4

CC(=O)Nc1cnc(Nc2ccc(C#N)cc2)nc1Nc1c(F)cc(/C=C/C#N)cc1Cl [Compound 28]
pEC50 IIIB [1]: 8.8 | pEC50 A [2]: 7.9 | pEC50 B [3]: 8.6 | pEC50 C [4]: 8.3 | pEC50 D [5]: 7.3 | pEC50 E [6]: 7 | pEC50 F [7]: 7.3 | pEC50 G [9]: 4.7

CCON=Cc1cnc(Nc2ccc(C#N)cc2)nc1Nc1c(C)cc(/C=C/C#N)cc1C [Compound 31]
pEC50 IIIB [1]: 8.5 | pEC50 A [2]: 8.2 | pEC50 B [3]: 8.5 | pEC50 C [4]: 8.5 | pEC50 D [5]: 8.2 | pEC50 E [6]: 8.2 | pEC50 F [7]: 8.2 | pEC50 G [9]: 5.1

CON=Cc1cnc(Nc2ccc(C#N)cc2)nc1Nc1c(C)cc(/C=C/C#N)cc1C [Compound 32]
pEC50 IIIB [1]: 8.5 | pEC50 A [2]: 8.5 | pEC50 B [3]: 8.7 | pEC50 C [4]: 9.3 | pEC50 D [5]: 8.6 | pEC50 E [6]: 8.6 | pEC50 F [7]: 8.7 | pEC50 G [9]: 6

— patent publication US8946248B2, “HIV inhibiting 5-substituted pyrimidines” (priority 2004, dated 2015)
